Where a SMILES comes first, the peptide text is derived from it. The star is where a group is joined. AMC = Cc1cc(=O)oc2cc(N*)ccc12; Decanoyl = CCCCCCCCCC(=O)*
Legend:
[1] = target: T1, NAD-dependent protein deacetylase sirtuin-7 (Homo sapiens) (UniProt Q9NRC8); test: Substrate activity at human N-terminal His-tagged SIRT7 (68 to 354 residues) expressed in Escherichia coli at 5 uM measured after 2 hrs in presence of NAD+ and trypsin by fluorescence assay
T1 sequence (whole entry): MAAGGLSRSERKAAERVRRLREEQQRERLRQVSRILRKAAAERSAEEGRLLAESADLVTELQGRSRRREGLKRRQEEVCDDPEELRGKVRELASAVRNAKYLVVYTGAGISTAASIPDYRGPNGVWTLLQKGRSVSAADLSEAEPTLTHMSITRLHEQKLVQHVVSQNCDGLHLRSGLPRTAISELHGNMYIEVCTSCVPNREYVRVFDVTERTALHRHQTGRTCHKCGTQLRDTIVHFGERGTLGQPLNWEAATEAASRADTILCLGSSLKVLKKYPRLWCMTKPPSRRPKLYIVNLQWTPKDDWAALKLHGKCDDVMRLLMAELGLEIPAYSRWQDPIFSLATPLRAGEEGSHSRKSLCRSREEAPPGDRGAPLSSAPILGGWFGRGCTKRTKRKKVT

[2] = target: T2, NAD-dependent protein deacetylase sirtuin-3, mitochondrial (Homo sapiens) (UniProt Q9NTG7); test: Substrate activity at human N-terminal His-tagged SIRT3 (122 to 391 residues) expressed in Escherichia coli at 0.5 uM measured after 2 hrs in presence of NAD+ and trypsin by fluorescence assay
T2 sequence (whole entry): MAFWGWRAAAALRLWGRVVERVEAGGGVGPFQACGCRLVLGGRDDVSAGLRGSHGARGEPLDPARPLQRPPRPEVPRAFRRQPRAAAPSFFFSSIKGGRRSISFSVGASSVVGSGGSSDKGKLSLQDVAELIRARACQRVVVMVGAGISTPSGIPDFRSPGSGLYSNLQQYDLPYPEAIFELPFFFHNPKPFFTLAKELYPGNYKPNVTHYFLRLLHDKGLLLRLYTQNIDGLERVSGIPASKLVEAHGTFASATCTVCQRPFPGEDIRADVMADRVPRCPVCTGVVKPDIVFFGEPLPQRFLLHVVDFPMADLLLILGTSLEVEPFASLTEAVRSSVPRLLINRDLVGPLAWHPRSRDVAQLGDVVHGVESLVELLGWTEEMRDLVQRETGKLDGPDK

[3] = target: T3, NAD-dependent protein deacetylase sirtuin-2 (Homo sapiens) (UniProt Q8IXJ6); test: Substrate activity at human N-terminal His-tagged SIRT2 (56 to 356 residues) expressed in Escherichia coli at 5 uM measured after 2 hrs in presence of NAD+ and trypsin by fluorescence assay
T3 sequence (whole entry): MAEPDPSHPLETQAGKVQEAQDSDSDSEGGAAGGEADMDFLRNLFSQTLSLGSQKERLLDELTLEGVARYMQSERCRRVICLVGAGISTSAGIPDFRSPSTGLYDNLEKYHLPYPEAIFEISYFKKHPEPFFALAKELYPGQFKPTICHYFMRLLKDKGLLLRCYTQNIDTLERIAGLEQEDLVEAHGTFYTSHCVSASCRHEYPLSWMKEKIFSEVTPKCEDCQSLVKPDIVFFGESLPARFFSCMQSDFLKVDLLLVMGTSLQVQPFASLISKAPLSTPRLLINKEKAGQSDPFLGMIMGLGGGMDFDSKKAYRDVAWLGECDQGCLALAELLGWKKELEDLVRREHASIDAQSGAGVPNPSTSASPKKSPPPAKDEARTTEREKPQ

[4] = target: T1, NAD-dependent protein deacetylase sirtuin-7 (Homo sapiens); test: Substrate activity at human N-terminal His-tagged SIRT7 (68 to 354 residues) expressed in Escherichia coli at 0.5 uM measured after 2 hrs in presence of NAD+ and trypsin by fluorescence assay
[5] = target: T3, NAD-dependent protein deacetylase sirtuin-2 (Homo sapiens); test: Substrate activity at human N-terminal His-tagged SIRT2 (56 to 356 residues) expressed in Escherichia coli at 0.5 uM measured after 2 hrs in presence of NAD+ and trypsin by fluorescence assay
[6] = target: T2, NAD-dependent protein deacetylase sirtuin-3, mitochondrial (Homo sapiens); test: Substrate activity at human N-terminal His-tagged SIRT3 (122 to 391 residues) expressed in Escherichia coli at 50 uM measured after 2 hrs in presence of NAD+ and trypsin by fluorescence assay
[7] = target: T1, NAD-dependent protein deacetylase sirtuin-7 (Homo sapiens); test: Substrate activity at human N-terminal His-tagged SIRT7 (68 to 354 residues) expressed in Escherichia coli at 50 uM measured after 2 hrs in presence of NAD+ and trypsin by fluorescence assay
[8] = target: NAD-dependent protein deacylase sirtuin-6 (Homo sapiens) (UniProt Q8N6T7); test: Substrate activity at human N-terminal His-tagged SIRT6 (1 to 355 residues) expressed in Escherichia coli at 50 uM measured after 2 hrs in presence of NAD+ and trypsin by fluorescence assay
[9] = target: NAD-dependent protein deacylase sirtuin-5, mitochondrial (Homo sapiens) (UniProt Q9NXA8); test: Substrate activity at human N-terminal His-tagged SIRT5 (34 to 302 residues) expressed in Escherichia coli at 0.5 uM measured after 2 hrs in presence of NAD+ and trypsin by fluorescence assay
[10] = target: T2, NAD-dependent protein deacetylase sirtuin-3, mitochondrial (Homo sapiens); test: Substrate activity at human N-terminal His-tagged SIRT3 (122 to 391 residues) expressed in Escherichia coli at 5 uM measured after 2 hrs in presence of NAD+ and trypsin by fluorescence assay
[11] = target: T4, NAD-dependent protein deacetylase sirtuin-1 (Homo sapiens) (UniProt Q96EB6); test: Substrate activity at human N-terminal His-tagged SIRT1 (183 to 664 residues) expressed in Escherichia coli at 0.5 uM measured after 2 hrs in presence of NAD+ and trypsin by fluorescence assay
T4 sequence (whole entry): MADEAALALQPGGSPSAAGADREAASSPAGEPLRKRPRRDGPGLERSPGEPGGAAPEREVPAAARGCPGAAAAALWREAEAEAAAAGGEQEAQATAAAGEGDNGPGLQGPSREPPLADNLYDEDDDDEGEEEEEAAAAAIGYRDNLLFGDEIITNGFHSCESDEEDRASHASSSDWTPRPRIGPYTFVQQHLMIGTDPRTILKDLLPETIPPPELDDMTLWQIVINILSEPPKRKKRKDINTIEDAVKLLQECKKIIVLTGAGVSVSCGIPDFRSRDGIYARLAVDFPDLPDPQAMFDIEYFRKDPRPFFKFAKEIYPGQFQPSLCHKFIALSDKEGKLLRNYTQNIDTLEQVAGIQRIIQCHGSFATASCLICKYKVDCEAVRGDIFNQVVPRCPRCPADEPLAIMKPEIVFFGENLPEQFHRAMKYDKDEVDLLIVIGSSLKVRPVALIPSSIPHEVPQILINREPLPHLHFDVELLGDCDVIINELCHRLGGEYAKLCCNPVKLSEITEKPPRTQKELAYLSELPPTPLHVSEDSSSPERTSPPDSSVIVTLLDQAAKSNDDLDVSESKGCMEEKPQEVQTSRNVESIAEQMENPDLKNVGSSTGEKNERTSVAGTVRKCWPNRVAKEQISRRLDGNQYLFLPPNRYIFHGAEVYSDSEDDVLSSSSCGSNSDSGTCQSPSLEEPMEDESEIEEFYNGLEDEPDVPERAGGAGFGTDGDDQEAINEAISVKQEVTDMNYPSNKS

[12] = target: T4, NAD-dependent protein deacetylase sirtuin-1 (Homo sapiens); test: Substrate activity at human N-terminal His-tagged SIRT1 (183 to 664 residues) expressed in Escherichia coli at 5 uM measured after 2 hrs in presence of NAD+ and trypsin by fluorescence assay
[13] = target: NAD-dependent protein deacylase sirtuin-5, mitochondrial (Homo sapiens) (UniProt Q9NXA8); test: Substrate activity at human N-terminal His-tagged SIRT5 (34 to 302 residues) expressed in Escherichia coli at 50 uM measured after 2 hrs in presence of NAD+ and trypsin by fluorescence assay
[14] = target: T4, NAD-dependent protein deacetylase sirtuin-1 (Homo sapiens); test: Substrate activity at human N-terminal His-tagged SIRT1 (183 to 664 residues) expressed in Escherichia coli at 50 uM measured after 2 hrs in presence of NAD+ and trypsin by fluorescence assay
[15] = target: NAD-dependent protein deacylase sirtuin-6 (Homo sapiens) (UniProt Q8N6T7); test: Substrate activity at human N-terminal His-tagged SIRT6 (1 to 355 residues) expressed in Escherichia coli at 0.5 uM measured after 2 hrs in presence of NAD+ and trypsin by fluorescence assay
[16] = target: NAD-dependent protein deacylase sirtuin-5, mitochondrial (Homo sapiens) (UniProt Q9NXA8); test: Substrate activity at human N-terminal His-tagged SIRT5 (34 to 302 residues) expressed in Escherichia coli at 5 uM measured after 2 hrs in presence of NAD+ and trypsin by fluorescence assay
[17] = target: NAD-dependent protein deacylase sirtuin-6 (Homo sapiens) (UniProt Q8N6T7); test: Substrate activity at human N-terminal His-tagged SIRT6 (1 to 355 residues) expressed in Escherichia coli at 5 uM measured after 2 hrs in presence of NAD+ and trypsin by fluorescence assay
[18] = target: T3, NAD-dependent protein deacetylase sirtuin-2 (Homo sapiens); test: Substrate activity at human N-terminal His-tagged SIRT2 (56 to 356 residues) expressed in Escherichia coli at 50 uM measured after 2 hrs in presence of NAD+ and trypsin by fluorescence assay

NAD-dependent protein deacylase sirtuin-6 (Homo sapiens), sequence (Q8N6T7 whole entry, the tested form may be a part): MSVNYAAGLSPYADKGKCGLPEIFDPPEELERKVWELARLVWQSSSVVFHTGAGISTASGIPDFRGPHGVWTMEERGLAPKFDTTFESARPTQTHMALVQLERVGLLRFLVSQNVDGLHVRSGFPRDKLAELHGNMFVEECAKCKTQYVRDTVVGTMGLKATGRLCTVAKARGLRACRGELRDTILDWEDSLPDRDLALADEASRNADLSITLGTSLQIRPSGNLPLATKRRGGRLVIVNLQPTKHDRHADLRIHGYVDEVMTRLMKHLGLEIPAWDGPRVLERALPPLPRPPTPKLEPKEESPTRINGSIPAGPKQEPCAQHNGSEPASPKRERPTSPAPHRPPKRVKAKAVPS
NAD-dependent protein deacylase sirtuin-5, mitochondrial (Homo sapiens), sequence (Q9NXA8 37-310 limits assumed): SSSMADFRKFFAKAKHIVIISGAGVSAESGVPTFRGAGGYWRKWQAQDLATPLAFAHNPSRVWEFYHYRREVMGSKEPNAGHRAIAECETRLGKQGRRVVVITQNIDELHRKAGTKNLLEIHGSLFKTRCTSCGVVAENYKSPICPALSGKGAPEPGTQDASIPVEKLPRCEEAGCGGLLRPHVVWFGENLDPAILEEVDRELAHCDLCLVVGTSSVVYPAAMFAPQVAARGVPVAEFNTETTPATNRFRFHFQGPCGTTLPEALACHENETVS

Structure (SMILES)	Activity [1] [RFU]	Activity [2] [RFU]	Activity [3] [RFU]	Activity [4] [RFU]	Activity [5] [RFU]	Activity [6] [RFU]	Activity [7] [RFU]	Activity [8] [RFU]	Activity [9] [RFU]	Activity [10] [RFU]	Activity [11] [RFU]	Activity [12] [RFU]	Activity [13] [RFU]	Activity [14] [RFU]	Activity [15] [RFU]	Activity [16] [RFU]	Activity [17] [RFU]	Activity [18] [RFU]
CC(=O)NCCCC[C@H](NC(=O)[C@H](CCCNC(=N)N)NC(=O)[C@H](CO)NC(=O)[C@H](CC(N)=O)NC(C)=O)C(=O)Nc1ccc2c(C)cc(=O)oc2c1 (Ac-NSRK(Ac)-{AMC})	0.32	0.34	0.24	0.38	0.23	0.67	0.44	0.44	0.27	0.41	0.23	0.37	1.02	1.21	0.49	0.28	0.36	0.52
CC(=O)NCCCC[C@H](NC(=O)[C@H](CCCCN)NC(=O)[C@H](Cc1cnc[nH]1)NC(=O)[C@H](CCCNC(=N)N)NC(C)=O)C(=O)Nc1ccc2c(C)cc(=O)oc2c1 (Ac-RHKK(Ac)-{AMC})	0.33	0.28	0.73	0.39	0.37	1.61	0.43	0.43	0.37	0.38	0.37	1.13	0.61	5.22	0.5	0.3	0.38	2.64
CC[C@H](C)[C@H](NC(=O)[C@H](CC(C)C)NC(=O)[C@H](CCCNC(=N)N)NC(C)=O)C(=O)N[C@@H](CCCCNC(C)=O)C(=O)Nc1ccc2c(C)cc(=O)oc2c1 (Ac-RLIK(Ac)-{AMC})	3.2	2.66	4.96	0.27	0.66	28.2	0.71	0.71	0.22	14.2	0.66	18.3	0.98	24.1	0.45	0.27	0.32	32.5
CC(=O)NCCCC[C@H](NC(=O)[C@H](CCCNC(=N)N)NC(=O)[C@H](C)NC(=O)[C@@H](NC(C)=O)[C@@H](C)O)C(=O)Nc1ccc2c(C)cc(=O)oc2c1 (Ac-TARK(Ac)-{AMC})	0.28	0.31	0.22	0.39	0.2	0.88	0.43	0.43	0.26	0.38	0.2	0.33	0.7	0.97	0.35	0.27	0.34	0.48
CCCCCCCCCC(=O)NCCCC[C@H](NC(=O)[C@H](CCCNC(=N)N)NC(=O)[C@H](C)NC(=O)[C@@H](NC(C)=O)[C@@H](C)O)C(=O)Nc1ccc2c(C)cc(=O)oc2c1 (Ac-TARK(Decanoyl)-{AMC})	0.35	0.26	0.65	0.35	0.25	1.08	0.79	0.79	0.26	0.4	0.25	0.46	1.38	1.43	0.48	0.28	0.38	1.94
